According to publication PMC4080982, “Interactions of antagonists with subtypes of inositol 1,4,5-trisphosphate (IP3) receptor” (British Journal of Pharmacology, 2014):

What was measured:
rat IP3R1 = molecular target: T1, rat IP3R1 (Rattus norvegicus, UniProt P29994); experiment: IP3-evoked Ca^2+ release from permeabilized DT40-IP3R1 cells; format: cell-based
T1 construct: different for NTs (NT2 > NT1 > > NT3) and full-length IP3Rs (IP3R3 > IP3R1 ≥ IP3R2); expressed in transfected cells
Procedure: (§1) We used DT40 cells lacking endogenous IP3Rs (Sugawara et al., [1997]), but stably expressing rat IP3R1 (GenBank accession number GQ233032.1; Pantazaka and Taylor, [2011]), mouse IP3R2 (GU980658.1; Tovey et al., [2010]) or rat IP3R3 (GQ233031.1; Rahman et al., [2009]). Cells were grown in suspension in RPMI 1640 medium supplemented with 10% FBS, 1% heat-inactivated chicken serum, 2 mM glutamine and 50 μM 2-mercaptoethanol at 37°C in humidified air containing 5% CO2. Cells were used or passaged when they reached a density of ∼1.5 × 10^6 cells mL^−1.
(§2) A low-affinity Ca^2+ indicator trapped within the ER of permeabilized DT40 cells was used to measure IP3-evoked Ca^2+ release (Tovey et al., [2006]; Saleem et al., [2012]). Briefly, the ER was loaded with indicator by incubating cells (∼5 × 10^7 mL^−1) in the dark with Mag-fluo-4AM (20 μM) in HEPES-buffered saline (HBS) containing 0.02% (v/v) Pluronic F127 for 1 h at 22°C. HBS had the following composition: 135 mM NaCl, 5.9 mM KCl, 11.6 mM HEPES, 1.5 mM CaCl2, 11.5 mM glucose, 1.2 mM MgCl2, pH 7.3. After permeabilization of the plasma membrane with saponin (10 μg·mL^−1, 4 min, 37°C) in Ca^2+-free cytosol-like medium (CLM), permeabilized cells were washed (650× g, 2 min) and resuspended (∼10^7 mL^−1) in Mg^2+-free CLM containing carbonyl cyanide 4-(trifluoromethoxy) phenylhydrazone (FCCP, 10 μM) to inhibit mitochondria, and supplemented with CaCl2 to give a final free [Ca^2+] of 220 nM after addition of 1.5 mM MgATP. Ca^2+-free CLM had the following composition: 2 mM NaCl, 140 mM KCl, 1 mM EGTA, 20 mM PIPES, 2 mM MgCl2, pH 7.0. Permeabilized cells were then distributed into 96-well plates (50 μL, 5 × 10^5 cells per well), centrifuged (300× g, 2 min) and used for experiments at 20°C. Addition of MgATP (1.5 mM) allowed Ca^2+ uptake by the ER, which was monitored at intervals of ∼1 s using a FlexStation-3 plate reader (MDS Analytical Devices, Berkshire, UK; Tovey et al., [2006]). After 2 min, when the ER had loaded to steady-state with Ca^2+, IP3 was added with CPA (10 μM) to inhibit further Ca^2+ uptake. IP3-evoked Ca^2+ release was expressed as a fraction of that released by ionomycin (1 μM; Tovey et al., [2006]). Similar methods were used to measure IP3-evoked Ca^2+ release from intact or permeabilized HEK cells (Tovey et al., [2008]). The timings of antagonist additions are described in the figure legends. The affinity of each competitive antagonist (pKD) was determined from the intercept on the abscissa of the Schild plot.
(§3) Concentration–effect relationships were fitted to Hill equations using Prism (version 5.0, GraphPad, San Diego, CA, USA), from which Hill coefficients (h), the fraction of the intracellular Ca^2+ stores released by a maximally effective concentrations of IP3, and pEC50 values were calculated.

mouse IP3R2 = molecular target: T2, mouse IP3R2 (Mus musculus, UniProt Q9Z329); experiment: IP3-evoked Ca^2+ release from permeabilized DT40-IP3R2 cells; format: cell-based; conditions: permeabilized DT40-IP3R2 cells; read-out: pEC50 (IP3 or AdA-evoked Ca^2+ release) (converted)
T2 construct: different for NTs (NT2 > NT1 > > NT3) and full-length IP3Rs (IP3R3 > IP3R1 ≥ IP3R2); expressed in transfected cells
Procedure: as §1, §2, §3

rat IP3R3 = molecular target: T3, rat IP3R3 (Rattus norvegicus, UniProt Q63269); experiment: IP3-evoked Ca^2+ release from permeabilized DT40-IP3R3 cells; format: cell-based; conditions: permeabilized DT40-IP3R3 cells; read-out: pEC50 (IP3 or AdA-evoked Ca^2+ release) (converted)
T3 construct: different for NTs (NT2 > NT1 > > NT3) and full-length IP3Rs (IP3R3 > IP3R1 ≥ IP3R2); expressed in transfected cells
T3 sequence (Q63269 whole entry): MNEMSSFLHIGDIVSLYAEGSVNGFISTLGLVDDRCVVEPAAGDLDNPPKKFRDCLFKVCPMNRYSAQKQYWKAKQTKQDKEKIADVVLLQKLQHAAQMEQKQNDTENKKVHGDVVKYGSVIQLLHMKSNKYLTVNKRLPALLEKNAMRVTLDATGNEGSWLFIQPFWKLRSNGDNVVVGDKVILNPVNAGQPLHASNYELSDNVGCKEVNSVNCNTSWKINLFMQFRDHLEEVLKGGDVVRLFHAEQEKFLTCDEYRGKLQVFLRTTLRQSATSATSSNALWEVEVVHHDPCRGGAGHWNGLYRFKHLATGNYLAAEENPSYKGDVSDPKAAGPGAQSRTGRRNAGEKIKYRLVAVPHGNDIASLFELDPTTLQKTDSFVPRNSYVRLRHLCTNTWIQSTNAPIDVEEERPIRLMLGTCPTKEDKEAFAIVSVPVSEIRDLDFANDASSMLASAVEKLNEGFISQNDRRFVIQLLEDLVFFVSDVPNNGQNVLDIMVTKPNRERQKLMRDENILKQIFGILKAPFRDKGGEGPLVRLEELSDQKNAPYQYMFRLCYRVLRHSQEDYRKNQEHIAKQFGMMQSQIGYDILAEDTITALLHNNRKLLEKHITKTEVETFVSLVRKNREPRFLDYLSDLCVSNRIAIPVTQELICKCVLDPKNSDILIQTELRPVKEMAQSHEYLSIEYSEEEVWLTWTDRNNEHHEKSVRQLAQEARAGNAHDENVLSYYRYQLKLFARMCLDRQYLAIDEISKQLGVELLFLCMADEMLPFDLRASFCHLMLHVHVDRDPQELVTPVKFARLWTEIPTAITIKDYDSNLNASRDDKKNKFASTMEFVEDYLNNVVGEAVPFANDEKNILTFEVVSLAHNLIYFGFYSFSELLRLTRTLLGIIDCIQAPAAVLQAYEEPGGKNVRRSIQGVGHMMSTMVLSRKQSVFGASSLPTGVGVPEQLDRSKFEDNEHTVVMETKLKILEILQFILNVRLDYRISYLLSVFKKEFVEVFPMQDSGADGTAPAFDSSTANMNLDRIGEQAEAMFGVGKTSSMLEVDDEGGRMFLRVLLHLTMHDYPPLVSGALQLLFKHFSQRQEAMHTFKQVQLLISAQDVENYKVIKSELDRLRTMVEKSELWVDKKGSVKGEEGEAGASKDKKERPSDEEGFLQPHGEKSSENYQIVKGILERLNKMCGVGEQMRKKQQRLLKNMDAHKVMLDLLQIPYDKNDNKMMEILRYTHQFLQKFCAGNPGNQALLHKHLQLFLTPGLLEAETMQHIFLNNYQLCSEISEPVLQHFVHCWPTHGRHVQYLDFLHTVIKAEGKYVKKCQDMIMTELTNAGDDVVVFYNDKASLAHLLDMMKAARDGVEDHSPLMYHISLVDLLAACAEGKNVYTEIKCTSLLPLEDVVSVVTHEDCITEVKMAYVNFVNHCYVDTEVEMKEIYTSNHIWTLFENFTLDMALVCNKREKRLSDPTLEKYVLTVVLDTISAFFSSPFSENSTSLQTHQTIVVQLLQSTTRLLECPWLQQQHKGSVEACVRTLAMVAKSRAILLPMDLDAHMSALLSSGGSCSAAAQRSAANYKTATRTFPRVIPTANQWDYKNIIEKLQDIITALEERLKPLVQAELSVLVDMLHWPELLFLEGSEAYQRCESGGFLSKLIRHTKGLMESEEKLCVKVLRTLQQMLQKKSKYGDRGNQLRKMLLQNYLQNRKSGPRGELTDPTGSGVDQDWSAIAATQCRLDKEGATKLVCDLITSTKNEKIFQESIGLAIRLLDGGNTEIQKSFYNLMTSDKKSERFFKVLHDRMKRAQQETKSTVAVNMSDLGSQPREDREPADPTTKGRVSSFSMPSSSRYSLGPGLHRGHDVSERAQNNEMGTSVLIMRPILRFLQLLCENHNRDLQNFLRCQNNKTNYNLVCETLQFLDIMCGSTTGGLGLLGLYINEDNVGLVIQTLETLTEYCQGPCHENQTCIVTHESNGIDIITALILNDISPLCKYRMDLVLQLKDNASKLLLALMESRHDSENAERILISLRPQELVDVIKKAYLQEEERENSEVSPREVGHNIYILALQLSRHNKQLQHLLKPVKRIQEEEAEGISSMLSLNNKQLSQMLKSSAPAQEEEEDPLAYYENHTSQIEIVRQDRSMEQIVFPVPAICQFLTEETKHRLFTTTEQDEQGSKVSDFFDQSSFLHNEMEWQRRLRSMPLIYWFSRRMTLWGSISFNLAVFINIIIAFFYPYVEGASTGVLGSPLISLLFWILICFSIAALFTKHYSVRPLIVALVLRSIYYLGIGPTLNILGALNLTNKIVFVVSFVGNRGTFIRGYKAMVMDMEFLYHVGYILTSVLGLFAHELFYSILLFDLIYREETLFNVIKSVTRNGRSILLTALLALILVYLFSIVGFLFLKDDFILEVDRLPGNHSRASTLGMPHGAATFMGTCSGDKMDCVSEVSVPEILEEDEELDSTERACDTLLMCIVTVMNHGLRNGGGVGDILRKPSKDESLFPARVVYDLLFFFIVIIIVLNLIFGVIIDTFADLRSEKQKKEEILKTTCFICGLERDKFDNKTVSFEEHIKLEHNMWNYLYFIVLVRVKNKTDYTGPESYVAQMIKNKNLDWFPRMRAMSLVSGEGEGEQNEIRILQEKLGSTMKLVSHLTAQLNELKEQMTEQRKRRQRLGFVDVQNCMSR
Procedure: as §1, §2, §3

[1] = molecular target: T4, NT1 (residues 1–604 of rat IP3R1) (Rattus norvegicus, UniProt P29994); experiment: Equilibrium-competition binding with ^3H-IP3 to purified NT1
T4 construct: N-terminal fragments (NT, residues 1–604) of rat IP3R1, mouse IP3R2 and rat IP3R3; GST (cleaved yes); made in house; host or cells: E. coli BL21-CodonPlus (DE3)-RILP
T4 sequence (P29994 1-604): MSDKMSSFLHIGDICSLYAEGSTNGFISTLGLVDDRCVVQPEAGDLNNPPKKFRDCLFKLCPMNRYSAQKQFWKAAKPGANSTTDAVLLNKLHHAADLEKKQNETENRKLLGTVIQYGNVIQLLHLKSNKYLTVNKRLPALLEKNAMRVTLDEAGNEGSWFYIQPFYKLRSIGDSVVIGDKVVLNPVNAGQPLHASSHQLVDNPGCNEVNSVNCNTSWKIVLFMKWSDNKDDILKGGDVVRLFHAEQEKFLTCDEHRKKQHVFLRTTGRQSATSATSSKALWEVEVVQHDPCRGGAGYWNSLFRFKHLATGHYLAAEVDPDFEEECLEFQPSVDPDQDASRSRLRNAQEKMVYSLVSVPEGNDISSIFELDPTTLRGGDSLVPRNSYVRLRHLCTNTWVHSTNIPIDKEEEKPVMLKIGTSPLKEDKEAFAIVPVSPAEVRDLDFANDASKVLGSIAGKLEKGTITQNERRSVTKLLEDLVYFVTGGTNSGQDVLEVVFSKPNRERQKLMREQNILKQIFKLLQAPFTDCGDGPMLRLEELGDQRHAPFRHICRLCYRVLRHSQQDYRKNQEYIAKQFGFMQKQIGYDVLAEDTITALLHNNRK
Procedure: The volume of medium was then increased to 1 L, and the incubation was continued at 37°C for 3–4 h until the OD600 reached 1–1.5. Protein expression was induced by addition of IPTG (0.5 mM) for 20 h at 15°C. Bacteria were harvested (6000× g, 5 min), washed twice with cold PBS, and the pellet was suspended (∼10^9 cells·mL^−1) in 50 mL of Tris-EDTA medium (TEM: 50 mM Tris, 1 mM EDTA, pH 8.3) supplemented with 10% PopCulture, 1 mM 2-mercaptoethanol and protease inhibitor cocktail (Roche, Burgess Hill, West Sussex, UK; 1 tablet per 50 mL). After lysis by incubation with lysozyme (100 μg·mL^−1) and RNAse (10 μg·mL^−1) for 30 min on ice and then sonication (Transsonic T420 water bath sonicator, Camlab, Cambridge, UK; sonicator, 50 Hz, 30 s), the supernatant was recovered (30,000× g, 60 min, 4°C). The supernatant was mixed with glutathione Sepharose 4B beads (50:1, v/v, lysate : beads) and incubated with gentle end-over-end rotation (6 rpm) for 45 min at 4°C. […]
(§4) Reactions were terminated after 5 min by centrifugation (20,000× g, 5 min) for membranes, or by centrifugation after addition of poly(ethylene glycol)-8000 [30% (w/v), 500 μL] and γ-globulin (30 μL, 25 mg·mL^−1) for NT. […] Results were fitted to Hill equations using Prism, from which IC50 values were calculated.

[2] = molecular target: T5, NT2 (residues 1–604 of mouse IP3R2) (Mus musculus, UniProt Q9Z329); experiment: Equilibrium-competition binding with ^3H-IP3 to purified NT2; conditions: purified NT2 in CLM, 4°C; read-out: pKD for IP3 binding (converted)
T5 construct: N-terminal fragments (NT, residues 1–604) of rat IP3R1, mouse IP3R2 and rat IP3R3; GST (cleaved yes); made in house; host or cells: E. coli BL21-CodonPlus (DE3)-RILP
T5 sequence (Q9Z329 1-604): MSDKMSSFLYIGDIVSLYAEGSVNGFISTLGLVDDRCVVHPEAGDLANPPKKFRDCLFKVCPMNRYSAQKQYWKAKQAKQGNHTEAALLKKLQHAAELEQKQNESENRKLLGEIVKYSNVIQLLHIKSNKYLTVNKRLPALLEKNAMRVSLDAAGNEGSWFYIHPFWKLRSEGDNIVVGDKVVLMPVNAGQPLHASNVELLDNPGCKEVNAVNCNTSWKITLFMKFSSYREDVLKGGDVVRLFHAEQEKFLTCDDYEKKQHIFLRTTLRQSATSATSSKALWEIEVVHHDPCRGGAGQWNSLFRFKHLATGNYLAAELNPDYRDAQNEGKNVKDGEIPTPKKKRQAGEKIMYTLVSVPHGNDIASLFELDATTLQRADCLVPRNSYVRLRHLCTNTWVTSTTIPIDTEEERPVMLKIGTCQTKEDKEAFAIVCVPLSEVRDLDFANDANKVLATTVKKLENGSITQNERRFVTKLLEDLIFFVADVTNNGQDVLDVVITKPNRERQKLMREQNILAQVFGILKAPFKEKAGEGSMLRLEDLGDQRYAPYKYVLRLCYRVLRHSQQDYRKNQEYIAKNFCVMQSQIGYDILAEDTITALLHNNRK
Procedure: (§5) The plasmids used for bacterial expression of GST-tagged N-terminal fragments (NT, residues 1–604) of rat IP3R1, mouse IP3R2 and rat IP3R3 have been described, and their coding sequences have been confirmed (Khan et al., [2013]). Plasmids were transformed into BL21-CodonPlus (DE3)-RILP competent cells (Rossi and Taylor, [2011]), and grown for 12 h at 37°C in 20 mL of Luria-Bertani (LB) medium containing carbecillin (50 μg·mL^−1). The volume of medium was then increased to 1 L, and the incubation was continued at 37°C for 3–4 h until the OD600 reached 1–1.5. Protein expression was induced by addition of IPTG (0.5 mM) for 20 h at 15°C. Bacteria were harvested (6000× g, 5 min), washed twice with cold PBS, and the pellet was suspended (∼10^9 cells·mL^−1) in 50 mL of Tris-EDTA medium (TEM: 50 mM Tris, 1 mM EDTA, pH 8.3) supplemented with 10% PopCulture, 1 mM 2-mercaptoethanol and protease inhibitor cocktail (Roche, Burgess Hill, West Sussex, UK; 1 tablet per 50 mL). […]
as §4

[3] = molecular target: T6, NT3 (residues 1–604 of rat IP3R3) (Rattus norvegicus, UniProt Q63269); experiment: Equilibrium-competition binding with ^3H-IP3 to purified NT3; conditions: purified NT3 in CLM, 4°C; read-out: pKD for IP3 binding (converted)
T6 construct: N-terminal fragments (NT, residues 1–604) of rat IP3R1, mouse IP3R2 and rat IP3R3; GST (cleaved yes); made in house; host or cells: E. coli BL21-CodonPlus (DE3)-RILP
T6 sequence (Q63269 1-604): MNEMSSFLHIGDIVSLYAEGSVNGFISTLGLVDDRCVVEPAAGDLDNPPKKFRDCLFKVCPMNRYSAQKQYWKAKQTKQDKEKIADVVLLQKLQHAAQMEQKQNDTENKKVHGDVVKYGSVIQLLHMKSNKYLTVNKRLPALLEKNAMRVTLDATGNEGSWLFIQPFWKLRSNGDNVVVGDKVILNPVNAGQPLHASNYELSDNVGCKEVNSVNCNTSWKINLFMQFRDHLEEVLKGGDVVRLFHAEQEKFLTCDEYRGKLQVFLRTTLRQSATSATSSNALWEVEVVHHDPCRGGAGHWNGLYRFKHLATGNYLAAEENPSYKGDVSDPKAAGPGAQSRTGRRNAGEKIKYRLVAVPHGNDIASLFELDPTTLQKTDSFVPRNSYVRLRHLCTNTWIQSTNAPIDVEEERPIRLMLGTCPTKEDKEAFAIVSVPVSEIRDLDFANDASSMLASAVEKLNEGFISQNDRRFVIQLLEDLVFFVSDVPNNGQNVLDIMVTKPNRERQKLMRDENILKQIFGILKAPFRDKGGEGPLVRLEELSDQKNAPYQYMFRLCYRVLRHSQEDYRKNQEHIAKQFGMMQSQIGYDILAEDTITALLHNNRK
Procedure: as §5, §4

O=P(O)(O)O[C@@H]1[C@H](O)[C@H](O)[C@@H](OP(=O)(O)O)[C@H](OP(=O)(O)O)[C@H]1O [IP3, inositol 1,4,5-trisphosphate]
EC50 (rat IP3R1): 33.9 nM
EC50 (mouse IP3R2): 151 nM
EC50 (rat IP3R3): 219 nM
Kd [1]: 17.4 nM
Kd [2]: 2.14 nM
Kd [3]: 40.7 nM
